{"source": "patent US20230037905A1", "about": "(Vyne Therapeutics Inc., priority 2019, published 2023)", "key": {"[1]": {"test_system": "Reconstructed Human Epidermis (RHE) tissues exposed to Th2 cytokines IL-4, IL-13, IL-25", "test": "Reconstructed Human Epidermis (RHE) Th2 AD model (StratiCELL)", "assay_type": "cell-based", "conditions": "48 h", "protocol": "Reconstructed Human Epidermis (RHE) tissues are produced and grown by StratiCELL. To generate the morphological and functional aspects of AD, RHE samples are exposed to Th2 cytokines IL-4, IL-13, IL-25. Th-2 cytokines are applied for 48 h in the culture medium of epidermis. Test formulations are applied simultaneously with the cytokines on the stratum corneum of the epidermis during the same 48 h. The tissue morphology is assessed by histology and hemalum/eosin (H/E) staining—quantification of a fluorescent dye (biotin) diffusion through the epidermis in order to evaluate the barrier function."}, "[2]": {"test": "Stability of Tofacitinib Citrate solution in 50 mM citrate buffer of different pH at 60° C.", "assay_type": "physicochemical", "set-up": "unit not given here"}, "[3]": {"test": "Compatibility test of tofacitinib citrate with excipients at 60° C.", "assay_type": "physicochemical", "set-up": "TOF assay: unit not given here", "conditions": "10 weeks at 60° C.", "protocol": "The mixtures are tightly closed and exposed to 60° C. protected from light."}, "[4]": {"test": "Stability of Tofacitinib Citrate solution in 50 mM citrate buffer of different pH at 60° C.", "assay_type": "physicochemical", "set-up": "unit not given here", "excerpt": "In one or more embodiments the pH, is about 4, about 4.1, about 4.2, about 4.3, about 4.4, about 4.5, about 4.6, about 4.7, about 4.8, about 4.9 or about 5.", "remark": "listed apart in the source"}, "[5]": {"test": "Solubility test (saturated solutions, HPLC)", "assay_type": "physicochemical", "protocol": "An additional analysis is performed after 48 hours of agitation to confirm the determined saturated concentration."}, "in vivo": {"test": "in vivo", "set-up": "species or system Minipigs", "conditions": "minipig, Tofacitinib concentration", "protocol": "Minipigs are treated topically on 10% body surface area, once daily for 14 days with the tested formulation."}, "[6]": {"test": "Chemical stability of formulations (HPLC)", "assay_type": "physicochemical", "protocol": "Where another active agent such as fingolimod is present in the formulations the samples are analysed for that active agent and its degradation products by HPLC. […] The gradient elution is employed."}, "[7]": {"biological_target": "S1P receptors (S1P1 and S1P3-5)", "conditions": "four of the five S1P receptors (S1P1 and S1P3-5); read-out: affinity; cited from earlier work"}, "[8]": {"conditions": "in Water + Carboxymethylcellulose"}, "[9]": {"conditions": "in Water + Glyceryl Monosteatate"}}, "note": "Structures can show the parent of a compound that is named as a salt.", "data": [{"smiles": "CCCCCCCCc1ccc(CCC(N)(CO)CO)cc1", "note": "[Fingolimod, 2-amino-2-[2-(4-octylphenyl)ethyl]propane-1,3-diol]", "values": [{"measurement": "barrier function (biotin immunofluorescence)", "setting": "[1]; 0.001% w/w", "result": "reduced the Th2-induced barrier alteration"}, {"measurement": "tissue morphology (histology, H/E staining)", "setting": "[1]; 0.001% w/w", "result": "reduced the Th2-induced barrier alteration"}, {"measurement": "barrier function (biotin immunofluorescence)", "setting": "[1]; 0.01% w/w", "result": "reduced the Th2-induced barrier alteration"}, {"measurement": "tissue morphology (histology, H/E staining)", "setting": "[1]; 0.01% w/w", "result": "reduced the Th2-induced barrier alteration"}, {"measurement": "tissue morphology (histology, H/E staining)", "setting": "[1]; 0.1% w/w", "result": "increased fragilization was observed with junction/adhesion loss and disorganization of cell layers"}, {"measurement": "barrier function (biotin immunofluorescence)", "setting": "[1]; 0.1%", "result": "Increased barrier alteration"}, {"measurement": "tissue morphology (histology, H/E staining)", "setting": "[1]; 1% w/w", "result": "increased fragilization was observed with junction/adhesion loss and disorganization of cell layers"}, {"measurement": "barrier function (biotin immunofluorescence)", "setting": "[1]; 1%", "result": "Increased barrier alteration"}]}, {"smiles": "C[C@@H]1CCN(C(=O)CC#N)C[C@@H]1N(C)c1ncnc2[nH]ccc12", "note": "[Tofacitinib citrate]", "values": [{"measurement": "RRT 0.48 (impurity)", "setting": "[2]; pH 3, 1 w", "result": 0.10}, {"measurement": "RRT 0.89 (impurity)", "setting": "[2]; pH 3, 1 w", "result": 0.10}, {"measurement": "TOF assay", "setting": "[2]; pH 3, 1 w", "result": 93.92}, {"measurement": "RRT 0.40 (impurity)", "setting": "[2]; pH 3, 2 w", "result": 0.09}, {"measurement": "RRT 0.48 (impurity)", "setting": "[2]; pH 3, 2 w", "result": 0.11}, {"measurement": "RRT 0.89 (impurity)", "setting": "[2]; pH 3, 2 w", "result": 0.09}, {"measurement": "RRT 1.42 (impurity)", "setting": "[2]; pH 3, 2 w", "result": 0.09}, {"measurement": "TOF assay", "setting": "[2]; pH 3, 2 w", "result": 100.09}, {"measurement": "Imp B", "setting": "[2]; pH 4, 1 w", "result": 0.09}, {"measurement": "TOF assay", "setting": "[2]; pH 4, 1 w", "result": 102.57}, {"measurement": "RRT 1.42 (impurity)", "setting": "[2]; pH 5, 1 w", "result": 0.14}, {"measurement": "RRT 0.80 (impurity)", "setting": "[2]; pH 5, 2 w", "result": 0.08}, {"measurement": "TOF assay", "setting": "[2]; pH 6, 1 w", "result": 99.67}, {"measurement": "RRT 0.89 (impurity)", "setting": "[2]; pH 6, 2 w", "result": 0.09}, {"measurement": "TOF assay", "setting": "[2]; pH 6, 2 w", "result": 100.09}, {"measurement": "Deg. products", "setting": "[3]; in MCT oil", "result": 0.09}, {"measurement": "TOF assay", "setting": "[3]; in MCT oil", "result": 108.4}, {"measurement": "Deg. products", "setting": "[3]; [8]", "result": 9.33}, {"measurement": "TOF assay", "setting": "[3]; [8]", "result": 48.1}, {"measurement": "Deg. products", "setting": "[3]; in Water + Ceteareth 20", "result": 4.57}, {"measurement": "TOF assay", "setting": "[3]; in Water + Ceteareth 20", "result": 67.7}, {"measurement": "Deg. products", "setting": "[3]; in Water + Glycerin", "result": 10.16}, {"measurement": "TOF assay", "setting": "[3]; in Water + Glycerin", "result": 63.9}, {"measurement": "Deg. products", "setting": "[3]; [9]", "result": 2.62}, {"measurement": "TOF assay", "setting": "[3]; [9]", "result": 75.6}, {"measurement": "Deg. products", "setting": "[3]; in Water + Hypermellose K100M", "result": 4.64}, {"measurement": "TOF assay", "setting": "[3]; in Water + Hypermellose K100M", "result": 14.2}, {"measurement": "Deg. products", "setting": "[3]; in Water + Methyl Paraben", "result": 4.14}, {"measurement": "TOF assay", "setting": "[3]; in Water + Methyl Paraben", "result": 81.6}, {"measurement": "Deg. products", "setting": "[3]; in Water + Propyl Paraben", "result": 3.01}, {"measurement": "TOF assay", "setting": "[3]; in Water + Propyl Paraben", "result": 93.0}, {"measurement": "Deg. products", "setting": "[3]; in Water + Stearic Acid", "result": 3.64}, {"measurement": "TOF assay", "setting": "[3]; in Water + Stearic Acid", "result": 79.4}, {"measurement": "Deg. products", "setting": "[3]; in Water + Stearyl Alcohol", "result": 2.21}, {"measurement": "TOF assay", "setting": "[3]; in Water + Stearyl Alcohol", "result": 73.1}, {"measurement": "Deg. products", "setting": "[3]; in Water + Xanthan Gum", "result": 28.23}, {"measurement": "TOF assay", "setting": "[3]; in Water + Xanthan Gum", "result": 7.7}, {"measurement": "Deg. products", "setting": "[3]; in Water", "result": 1.90}, {"measurement": "TOF assay", "setting": "[3]; in Water", "result": 106.7}, {"measurement": "TOF assay", "setting": "[4]; pH 4, 2 w", "result": 106.31}, {"measurement": "TOF assay", "setting": "[4]; pH 4.5, 1 w", "result": 108.64}, {"measurement": "TOF assay", "setting": "[4]; pH 4.5, 2 w", "result": 99.84}, {"measurement": "RRT 1.42 (impurity)", "setting": "[4]; pH 5, 2 w", "result": 0.14}, {"measurement": "TOF assay", "setting": "[4]; pH 5, 2 w", "result": 101.02}, {"measurement": "Solubility of TOF Citrate", "setting": "[5]; in 0.02% HCl", "result": 4.06, "unit": "mg/g"}, {"measurement": "Solubility of TOF Citrate", "setting": "[5]; in 0.05% NaOH (degraded)", "result": "not detected"}, {"measurement": "Solubility of TOF Citrate", "setting": "[5]; in Benzyl Alcohol", "result": 0.81, "unit": "mg/g"}, {"measurement": "Solubility of TOF Citrate", "setting": "[5]; in DMSO", "result": ">150", "unit": "mg/g"}, {"measurement": "solubilized tofacitinib citrate concentration", "setting": "[5]; in DMSO", "result": "> 15", "unit": "%"}, {"measurement": "Solubility of TOF Citrate", "setting": "[5]; in Diisopropyl adipate", "result": 0.02, "unit": "mg/g"}, {"measurement": "Solubility of TOF Citrate", "setting": "[5]; in Dimethyl isosorbate", "result": 1.27, "unit": "mg/g"}, {"measurement": "Solubility of TOF Citrate", "setting": "[5]; in Ethanol", "result": 0.61, "unit": "mg/g"}, {"measurement": "Solubility of TOF Citrate", "setting": "[5]; in Glycerin", "result": 0.97, "unit": "mg/g"}, {"measurement": "Solubility of TOF Citrate", "setting": "[5]; in Hexylene Glycol", "result": 0.25, "unit": "mg/g"}, {"measurement": "Solubility of TOF Citrate", "setting": "[5]; in Isopropyl Alcohol", "result": 0.24, "unit": "mg/g"}, {"measurement": "Solubility of TOF Citrate", "setting": "[5]; in Isopropyl myristate", "result": "<0.02", "unit": "mg/g"}, {"measurement": "Solubility of TOF Citrate", "setting": "[5]; in MCT oil (Caprylic/capric triglycerides)", "result": "<0.01", "unit": "mg/g"}, {"measurement": "Solubility of TOF Citrate", "setting": "[5]; in Oleyl alcohol", "result": 0.09, "unit": "mg/g"}, {"measurement": "Solubility of TOF Citrate", "setting": "[5]; in PPG-11 Stearyl ether", "result": 0.02, "unit": "mg/g"}, {"measurement": "Solubility of TOF Citrate", "setting": "[5]; in Propylene Glycol", "result": 1.70, "unit": "mg/g"}, {"measurement": "Solubility of TOF Citrate", "setting": "[5]; in Transcutol", "result": 2.01, "unit": "mg/g"}, {"measurement": "Solubility of TOF Citrate", "setting": "[5]; in Water", "result": 2.77, "unit": "mg/g"}, {"measurement": "Solubility of TOF Citrate", "setting": "[5]; in polyethylene glycol 200", "result": 5.16, "unit": "mg/g"}, {"measurement": "solubilized tofacitinib citrate concentration", "setting": "[5]; in polyethylene glycol 200", "result": "about 0.5%"}, {"measurement": "Solubility of TOF Citrate", "setting": "[5]; in polyethylene glycol 400", "result": 6.96, "unit": "mg/g"}, {"measurement": "solubilized tofacitinib citrate concentration", "setting": "[5]; in polyethylene glycol 400", "result": "about 0.7%"}]}, {"smiles": "C[C@@H]1CCN(C(=O)CC#N)C[C@@H]1N(C)c1ncnc2[nH]ccc12", "note": "[Tofacitinib]", "values": [{"measurement": "concentration at 4 h", "setting": "in vivo", "result": 1.48, "unit": "ng/mL"}, {"measurement": "concentration at 8 h", "setting": "in vivo", "result": 1.32, "unit": "ng/mL"}, {"measurement": "concentration at 24 h", "setting": "in vivo", "result": 0.688, "unit": "ng/mL"}]}, {"smiles": "CCCCCCCCc1ccc(CCC(N)(CO)CO)cc1", "note": "[fingolimod hydrochloride, Fingolimod hydrochloride]", "values": [{"measurement": "chemical stability of active agent in formulation", "setting": "[6]", "result": "stable at 5° C., 40 °C and 50 °C"}]}, {"smiles": "CCCCCCCCc1ccc(CC[C@](N)(CO)COP(=O)(O)O)cc1", "note": "[fingolimod-phosphate]", "values": [{"measurement": "Kd", "setting": "[7]", "result": "0.3 to 3.1", "unit": "nM"}]}]}
